In PubChem BioAssay (NCI):
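Exposure lasted 48 hours, with cells grown in 96-well plates and compounds tested at five concentrations. GI50 is the concentration that inhibits growth by half. TGI is the concentration that stops growth completely.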

What was measured:
Test in all cases: NCI-60 cell line screen, 48 h
OVCAR-4 ovarian = test system: OVCAR-4 ovarian
PC-3 prostate = test system: PC-3 prostate
DU-145 prostate = test system: DU-145 prostate
UACC-62 melanoma = test system: UACC-62 melanoma
HOP-62 NSCLC = test system: HOP-62 NSCLC
OVCAR-3 ovarian = test system: OVCAR-3 ovarian
HCT-116 colon = test system: HCT-116 colon
CAKI-1 renal = test system: CAKI-1 renal
RPMI-8226 leukemia = test system: RPMI-8226 leukemia
A498 renal = test system: A498 renal
NCI-H226 lung = test system: NCI-H226 lung
HL-60(TB) leukemia = test system: HL-60(TB) leukemia
NCI-H460 lung = test system: NCI-H460 lung
M14 melanoma = test system: M14 melanoma
U251 CNS = test system: U251 CNS
LOX IMVI melanoma = test system: LOX IMVI melanoma
RXF 393 renal = test system: RXF 393 renal
SK-MEL-2 melanoma = test system: SK-MEL-2 melanoma
SK-OV-3 ovarian = test system: SK-OV-3 ovarian
HCT-15 colon = test system: HCT-15 colon
HT29 colon = test system: HT29 colon
786-0 renal = test system: 786-0 renal
UACC-257 melanoma = test system: UACC-257 melanoma
A549 NSCLC = test system: A549 NSCLC
MCF7 breast = test system: MCF7 breast
SK-MEL-5 melanoma = test system: SK-MEL-5 melanoma
SF-268 CNS = test system: SF-268 CNS
NCI/ADR-RES ovarian = test system: NCI/ADR-RES ovarian
K-562 leukemia = test system: K-562 leukemia
OVCAR-8 ovarian = test system: OVCAR-8 ovarian
BT-549 breast = test system: BT-549 breast
SR leukemia = test system: SR leukemia
SK-MEL-28 melanoma = test system: SK-MEL-28 melanoma
UO-31 renal = test system: UO-31 renal
NCI-H23 lung = test system: NCI-H23 lung
CCRF-CEM leukemia = test system: CCRF-CEM leukemia
HCC-2998 colon = test system: HCC-2998 colon
SN12C renal = test system: SN12C renal
NCI-H522 lung = test system: NCI-H522 lung
ACHN renal = test system: ACHN renal
IGROV1 ovarian = test system: IGROV1 ovarian
MOLT-4 leukemia = test system: MOLT-4 leukemia
TK-10 renal = test system: TK-10 renal
SW-620 colon = test system: SW-620 colon
KM12 colon = test system: KM12 colon
HOP-92 NSCLC = test system: HOP-92 NSCLC
HS 578T breast = test system: HS 578T breast
SNB-19 CNS = test system: SNB-19 CNS
MALME-3M melanoma = test system: MALME-3M melanoma
T-47D breast = test system: T-47D breast
SF-295 CNS = test system: SF-295 CNS
OVCAR-5 ovarian = test system: OVCAR-5 ovarian
SF-539 CNS = test system: SF-539 CNS
SNB-75 CNS = test system: SNB-75 CNS
MDA-MB-435 = test system: MDA-MB-435
COLO 205 colon = test system: COLO 205 colon
MDA-MB-231 breast = test system: MDA-MB-231 breast

Compound COc1ccccc1-c1ccc2nc(NC(=O)Nc3cc(C(F)(F)F)cc(C(F)(F)F)c3)sc2c1 has a GI50 (OVCAR-4 ovarian) of 2.12 µM, a TGI (OVCAR-4 ovarian) of 9.96 µM and a GI50 (PC-3 prostate) of 1.49 µM. The TGI (PC-3 prostate) was 6.93 µM, the GI50 (DU-145 prostate) was 4 µM and the TGI (DU-145 prostate) was 14.9 µM. For the same compound, the GI50 (UACC-62 melanoma) was 1.56 µM, the TGI (UACC-62 melanoma) was 3.26 µM and the GI50 (HOP-62 NSCLC) was 2.1 µM. The TGI (HOP-62 NSCLC) was 4.99 µM, the GI50 (OVCAR-3 ovarian) was 1.58 µM and the TGI (OVCAR-3 ovarian) was 4.58 µM. The GI50 (HCT-116 colon) was 1.07 µM, the TGI (HCT-116 colon) was 2.45 µM and the GI50 (CAKI-1 renal) was 2.33 µM. The TGI (CAKI-1 renal) was 6.35 µM, the GI50 (RPMI-8226 leukemia) was 1.63 µM and the TGI (RPMI-8226 leukemia) was 5.76 µM. It also gave a GI50 (A498 renal) of 1.64 µM, a TGI (A498 renal) of 3.9 µM and a GI50 (NCI-H226 lung) of 2.16 µM. The TGI (NCI-H226 lung) was 5.67 µM, the GI50 (HL-60(TB) leukemia) was 2.01 µM and the TGI (HL-60(TB) leukemia) was 4.53 µM. For the same compound, the GI50 (NCI-H460 lung) was 2.26 µM, the TGI (NCI-H460 lung) was 6.12 µM and the GI50 (M14 melanoma) was 1.54 µM. For the same compound, the TGI (M14 melanoma) was 3.22 µM, the GI50 (U251 CNS) was 2.31 µM and the TGI (U251 CNS) was 10.3 µM. The GI50 (LOX IMVI melanoma) was 1.68 µM, the TGI (LOX IMVI melanoma) was 3.13 µM and the GI50 (RXF 393 renal) was 2.19 µM. It also gave a TGI (RXF 393 renal) of 6.18 µM, a GI50 (SK-MEL-2 melanoma) of 2.09 µM and a TGI (SK-MEL-2 melanoma) of 6.09 µM. For the same compound, the GI50 (SK-OV-3 ovarian) was 2.92 µM, the TGI (SK-OV-3 ovarian) was 11.4 µM and the GI50 (HCT-15 colon) was 2.55 µM. The TGI (HCT-15 colon) was 10.6 µM, the GI50 (HT29 colon) was 2.15 µM and the TGI (HT29 colon) was 9.21 µM. The GI50 (786-0 renal) was 1.44 µM, the TGI (786-0 renal) was 3.25 µM and the GI50 (UACC-257 melanoma) was 2.31 µM. For the same compound, the TGI (UACC-257 melanoma) was 6.52 µM, the GI50 (A549 NSCLC) was 3.19 µM and the TGI (A549 NSCLC) was 11.8 µM. The GI50 (MCF7 breast) was 2.28 µM, the TGI (MCF7 breast) was 10.9 µM and the GI50 (SK-MEL-5 melanoma) was 1.57 µM. It also gave a TGI (SK-MEL-5 melanoma) of 2.98 µM, a GI50 (SF-268 CNS) of 2.86 µM and a TGI (SF-268 CNS) of 12.2 µM. It also gave a GI50 (NCI/ADR-RES ovarian) of 2.37 µM, a TGI (NCI/ADR-RES ovarian) of 7.19 µM and a GI50 (K-562 leukemia) of 1.54 µM. The TGI (K-562 leukemia) was 8.95 µM, the GI50 (OVCAR-8 ovarian) was 3.04 µM and the TGI (OVCAR-8 ovarian) was 11.2 µM. The GI50 (BT-549 breast) was 1.62 µM, the TGI (BT-549 breast) was 3.72 µM and the GI50 (SR leukemia) was 1.76 µM. For the same compound, the TGI (SR leukemia) was 5.25 µM, the GI50 (SK-MEL-28 melanoma) was 2.51 µM and the TGI (SK-MEL-28 melanoma) was 9.1 µM. The GI50 (UO-31 renal) was 1.79 µM, the TGI (UO-31 renal) was 4.07 µM and the GI50 (NCI-H23 lung) was 2.02 µM. The TGI (NCI-H23 lung) was 7.09 µM, the GI50 (CCRF-CEM leukemia) was 2.43 µM and the TGI (CCRF-CEM leukemia) was 15 µM. For the same compound, the GI50 (HCC-2998 colon) was 2.65 µM, the TGI (HCC-2998 colon) was 11.1 µM and the GI50 (SN12C renal) was 1.7 µM. It also gave a TGI (SN12C renal) of 3.36 µM, a GI50 (NCI-H522 lung) of 1.76 µM and a TGI (NCI-H522 lung) of 9.35 µM. It also gave a GI50 (ACHN renal) of 2.14 µM, a TGI (ACHN renal) of 7.71 µM and a GI50 (IGROV1 ovarian) of 2.83 µM. For the same compound, the TGI (IGROV1 ovarian) was 10.7 µM, the GI50 (MOLT-4 leukemia) was 1.58 µM and the TGI (MOLT-4 leukemia) was 7.24 µM. For the same compound, the GI50 (TK-10 renal) was 4.03 µM, the TGI (TK-10 renal) was 13.2 µM and the GI50 (SW-620 colon) was 3.04 µM. For the same compound, the TGI (SW-620 colon) was 11.2 µM, the GI50 (KM12 colon) was 2.07 µM and the TGI (KM12 colon) was 6.45 µM. It also gave a GI50 (HOP-92 NSCLC) of 1.19 µM, a TGI (HOP-92 NSCLC) of 4.31 µM and a GI50 (HS 578T breast) of 2.35 µM. It also gave a TGI (HS 578T breast) of 7.67 µM, a GI50 (SNB-19 CNS) of 2.44 µM and a TGI (SNB-19 CNS) of 12.2 µM. The GI50 (MALME-3M melanoma) was 1.81 µM, the TGI (MALME-3M melanoma) was 4.29 µM and the GI50 (T-47D breast) was 2.16 µM. The TGI (T-47D breast) was 9.89 µM, the GI50 (SF-295 CNS) was 2.64 µM and the TGI (SF-295 CNS) was 9.33 µM. For the same compound, the GI50 (OVCAR-5 ovarian) was 2.54 µM, the TGI (OVCAR-5 ovarian) was 9.66 µM and the GI50 (SF-539 CNS) was 1.99 µM. For the same compound, the TGI (SF-539 CNS) was 5.5 µM, the GI50 (SNB-75 CNS) was 2.25 µM and the TGI (SNB-75 CNS) was 11.8 µM. The GI50 (MDA-MB-435) was 2.27 µM, the TGI (MDA-MB-435) was 6.73 µM and the GI50 (COLO 205 colon) was 1.65 µM. For the same compound, the TGI (COLO 205 colon) was 3.92 µM, the GI50 (MDA-MB-231 breast) was 1.95 µM and the TGI (MDA-MB-231 breast) was 4.24 µM.
